The source made the active and inactive calls. The calls are words filed in the database; no cut-off is given here.
Key:
Type in all cases: functional
MCF7 [1] = experiment: Inhibition of residual DNA repair ability in Homo sapiens (human) MCF7 cells assessed as plaque forming unit at 50 uM followed by irradiated with 100 Jm'-2 of UV after 24 hr by host cell reactivation assay relative to control
MCF7 [2] = experiment: Inhibition of residual DNA repair ability in Homo sapiens (human) MCF7 cells assessed as plaque forming unit at 50 uM followed by irradiated with 200 Jm'-2 of UV after 24 hr by host cell reactivation assay relative to control
MCF7 [3] = experiment: Increase of benzo[alpha]pyrene-DNA adduct formation in Homo sapiens (human) MCF7 cells at 50 uM treated for 24 hr before benzo[alpha]pyrene addition measured after 24 hr by 32P-postlabeling technique relative to control
MCF7 [4] = experiment: Inhibition of residual DNA repair ability in Homo sapiens (human) MCF7 cells assessed as plaque forming unit at 50 uM followed by irradiated with 50 Jm'-2 of UV after 24 hr by host cell reactivation assay relative to control
MCF7 [5] = experiment: Decrease of p53 protein expression in Homo sapiens (human) MCF7 cells at 50 uM followed by irradiated with UV after 4 hr by Western blot analysis relative to control; parameters: scale not given: the % may be the effect or the level left
MCF7 [6] = experiment: Decrease of p21 protein expression in Homo sapiens (human) MCF7 cells at 50 uM followed by irradiated with UV after 4 hr by Western blot analysis relative to control; parameters: scale not given: the % may be the effect or the level left
MCF7 [7] = experiment: Decrease of p16 protein expression in Homo sapiens (human) MCF7 cells at 50 uM followed by irradiated with UV after 4 hr by Western blot analysis relative to control; parameters: scale not given: the % may be the effect or the level left
MCF7 [8] = experiment: Increase of benzo[alpha]pyrene-DNA adduct formation in Homo sapiens (human) MCF7 cells at 100 uM treated for 24 hr before benzo[alpha]pyrene addition measured after 24 hr by 32P-postlabeling technique relative to control

O[C@]12C=C(c3nccc4c3[nH]c3ccccc34)[C@@H]3CCN(CCCC/C=C\CC1)C[C@@]31C[C@@H]3/C=C\CCCCN3[C@H]12 [MANZAMINE A]
%PFU (MCF7 [1]): 15% | %PFU (MCF7 [2]): 9% | fold change (FC) (MCF7 [3]): 2 | %PFU (MCF7 [4]): 46% | Activity (MCF7 [5]): 63% | Activity (MCF7 [6]): 80% | Activity (MCF7 [7]): 89%

CC1=C2CC/C(C)=C/CC[C@]3(C)O[C@H]3CC/C(C)=C/[C@@H]2OC1=O [SARCOPHINE]
%PFU (MCF7 [1]): 38% | %PFU (MCF7 [2]): 24% | Activity (MCF7 [3]): inactive | fold change (FC) (MCF7 [8]): 2 | %PFU (MCF7 [4]): 69% | Activity (MCF7 [5]): 90% | Activity (MCF7 [6]): 120% | Activity (MCF7 [7]): 96%

Source: ChEMBL document CHEMBL3046916, “ROLE OF INTERMEDIARY BIOMARKERS IN DETERMINING THE ANTICANCER EFFICACY OF MARINE COMPOUNDS” (2004)
